Measured values as given in PubChem BioAssay (NCI).
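Protocol summary: plate cells (96-well), add compound at 5 concentrations, incubate 48 h, interpolate endpoints linearly. Here, GI50 denotes the concentration required for 50% inhibition of growth. TGI is the concentration that stops growth completely.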

Legend:
Assay in all cases: inhibition of tumour cell growth, NCI panel, 48 h
786-0 renal = tested on: 786-0 renal
A498 renal = tested on: A498 renal
A549 NSCLC = tested on: A549 NSCLC
ACHN renal = tested on: ACHN renal
BT-549 breast = tested on: BT-549 breast
CAKI-1 renal = tested on: CAKI-1 renal
CCRF-CEM leukemia = tested on: CCRF-CEM leukemia
COLO 205 colon = tested on: COLO 205 colon
DU-145 prostate = tested on: DU-145 prostate
EKVX NSCLC = tested on: EKVX NSCLC
HCT-116 colon = tested on: HCT-116 colon
HCT-15 colon = tested on: HCT-15 colon
HL-60(TB) leukemia = tested on: HL-60(TB) leukemia
HOP-62 NSCLC = tested on: HOP-62 NSCLC
HOP-92 NSCLC = tested on: HOP-92 NSCLC
HS 578T breast = tested on: HS 578T breast
HT29 colon = tested on: HT29 colon
IGROV1 ovarian = tested on: IGROV1 ovarian
K-562 leukemia = tested on: K-562 leukemia
KM12 colon = tested on: KM12 colon
LOX IMVI melanoma = tested on: LOX IMVI melanoma
M14 melanoma = tested on: M14 melanoma
MALME-3M melanoma = tested on: MALME-3M melanoma
MCF7 breast = tested on: MCF7 breast
MDA-MB-231 breast = tested on: MDA-MB-231 breast
MDA-MB-435 = tested on: MDA-MB-435
MOLT-4 leukemia = tested on: MOLT-4 leukemia
NCI-H226 lung = tested on: NCI-H226 lung
NCI-H23 lung = tested on: NCI-H23 lung

Compound: CCOC(=O)c1cc(-c2ccc([N+](=O)[O-])cc2)n(-c2ccc(C(=O)O)c(O)c2)c1C
- GI50 (786-0 renal): 4.84 µM
- TGI (786-0 renal): 17.2 µM
- GI50 (A498 renal): 10.1 µM
- TGI (A498 renal): 21.9 µM
- GI50 (A549 NSCLC): 3.38 µM
- TGI (A549 NSCLC): 12.7 µM
- GI50 (ACHN renal): 2.94 µM
- TGI (ACHN renal): 9.38 µM
- GI50 (BT-549 breast): 3.83 µM
- TGI (BT-549 breast): 18.1 µM
- GI50 (CAKI-1 renal): 11.6 µM
- TGI (CAKI-1 renal): 30.1 µM
- GI50 (CCRF-CEM leukemia): 2.75 µM
- TGI (CCRF-CEM leukemia): > 100 µM
- GI50 (COLO 205 colon): 1.6 µM
- TGI (COLO 205 colon): 3.84 µM
- GI50 (DU-145 prostate): 4.55 µM
- TGI (DU-145 prostate): 17.5 µM
- GI50 (EKVX NSCLC): 5.2 µM
- TGI (EKVX NSCLC): 18 µM
- GI50 (HCT-116 colon): 2.78 µM
- TGI (HCT-116 colon): 11.6 µM
- GI50 (HCT-15 colon): 3.02 µM
- TGI (HCT-15 colon): 12.2 µM
- GI50 (HL-60(TB) leukemia): 4.94 µM
- TGI (HL-60(TB) leukemia): 48.4 µM
- GI50 (HOP-62 NSCLC): 7.55 µM
- TGI (HOP-62 NSCLC): 23.3 µM
- GI50 (HOP-92 NSCLC): 2.09 µM
- TGI (HOP-92 NSCLC): 13.4 µM
- GI50 (HS 578T breast): 3.64 µM
- TGI (HS 578T breast): 17 µM
- GI50 (HT29 colon): 3.23 µM
- TGI (HT29 colon): 13.3 µM
- GI50 (IGROV1 ovarian): 4.42 µM
- TGI (IGROV1 ovarian): 19.2 µM
- GI50 (K-562 leukemia): 3.82 µM
- TGI (K-562 leukemia): > 100 µM
- GI50 (KM12 colon): 3.55 µM
- TGI (KM12 colon): 11.7 µM
- GI50 (LOX IMVI melanoma): 2.85 µM
- TGI (LOX IMVI melanoma): 11 µM
- GI50 (M14 melanoma): 4.26 µM
- TGI (M14 melanoma): 15.2 µM
- GI50 (MALME-3M melanoma): 2.23 µM
- TGI (MALME-3M melanoma): 12.5 µM
- GI50 (MCF7 breast): 3.58 µM
- TGI (MCF7 breast): 13.7 µM
- GI50 (MDA-MB-231 breast): 10.3 µM
- TGI (MDA-MB-231 breast): 29.9 µM
- GI50 (MDA-MB-435): 3.62 µM
- TGI (MDA-MB-435): 14.6 µM
- GI50 (MOLT-4 leukemia): 3.37 µM
- TGI (MOLT-4 leukemia): 20.7 µM
- GI50 (NCI-H226 lung): 11.2 µM
- TGI (NCI-H226 lung): 33.9 µM
- GI50 (NCI-H23 lung): 3.18 µM
